What was measured:
[1] = tested on: 3D EpiDerm skin models (SIT 200 skin irritation model); assay: in vitro skin irritation assay, IL-1α release by ELISA; assay type: cell-based
Method: To measure skin irritation, in vitro experiments are conducted using 3D EpiDerm skin models (SIT 200 skin irritation model, MatTek Corporation, Ashland, MA 01721). The irritation assay measures IL-la protein released by the cells to the media to evaluate the level of skin irritation and inflammation. In vitro skin samples are treated topically with 30 μl of test compounds (taurine (1% by weight) or taurine-L-arginine-glycine complex (1% by weight) of 2:1:1 (a mixture of 0.5% taurine, 0.25% L-arginine and 0.25% glycine, by weight) for 1 hour in tissue culture incubator. To induce irritation, cells are co-treated with 0.05% SDS and the test compounds. Following the incubation, skin samples are washed with PBS and placed in a culture medium and incubated for 24 hours. Cell culture media are collected for IL-la release assay. IL-la release is analyzed by ELISA assay kit (R&D Systems, Minneapolis, MN 55413). The greater IL-la release, the greater the irritation potential. […] Samples 1-6 are evaluated in the in vitro irritation assay as described above in Example 2.

[2] = tested on: HaCaT cells; assay: in vitro migration assay (scratch gap closure) for barrier repair; assay type: cell-based, human; conditions: 24 hours incubation, taurine 0.0005% alone or with L-arginine 0.0001% and glycine 0.0001% (Example 1)
Method: To determine barrier repair function of taurine combined with L-arginine and glycine, in vitro experiments are conducted using HaCaT cells. HaCaT cells are spontaneously transformed aneuploid immortal keratinocyte cell line from adult human skin and are grown until 100% confluent. After that, each well is scratched with 1000 μl tip to create the gap and washed with 1 ml of PBS twice to eliminate dead floating cells. Following that, cells are treated with 1 ml of culture media for control (untreated), Taurine (0.0005% by weight), and amino acid complex of taurine (0.0005% by weight) combined with L-arginine (0.0001% by weight) and glycine (0.0001% by weight). Then, initial measurements of gap distance are taken using microscope (OLYMPUS IX71). Next, the treated cells are incubated for 24 hours and measurements are taken again.
The migration assay measures cell migration in order to evaluate the barrier repair.

CCCCCCCCCCCCOS(=O)(=O)[O-].[Na+] [SDS, sodium dodecyl sulfate]
IL-1α release (% of control) ([1]; 0.05% SDS alone (Example 2)): 120 % of control | IL-1α release (% of control) ([1]; 0.05% SDS alone (Example 4)): 140 % of control | increase of IL-1α release ([1]; 0.05% SDS alone vs untreated (Example 2)): 20%

NCCS(=O)(=O)O [taurine, 2-aminoethanesulfonic acid]
IL-1α release (% of control) ([1]; 1% test compound co-treated with 0.05% SDS (Example 4)): 114 % of control | IL-1α release (% of control) ([1]; 30 μl of 1% test compound co-treated with 0.05% SDS for 1 hour, then 24 hours in medium (Example 2)): 70 % of control | Cell migration in 24hr (% of control) [2]: 66 % of control
